Target: T1, recombinant human ASK1 protein (catalytic domain, residues 659–951) (Homo sapiens, UniProt Q99683)
T1 construct: The catalytic domain of ASK1 (encoding residues 659–951) was modified to include an N-terminal 6XHis tag; 6XHis (N); made in house; host or cells: E. coli Rosetta2 (DE3)
Assay: ASK1 enzyme inhibition assay (ADP-Glo)
Type: biochemical
Details: for ΔGexp: estimated from IC50 using ΔG = RTln(IC50), 298 K; for IC50: mean ± SEM, n = 3 experiments, 25 μM ATP, 0.1 μg/μL MBP, ADP-Glo
Description: The recombinant human ASK1 protein was expressed in E. coli Rosetta2 (DE3) in LB medium, containing 100 µg/mL ampicillin and 34 µg/mL chloramphenicol. A total of 2 mL overnight culture was diluted 100-fold into 200 mL LB and grown at 37 °C with shaking at 200 rpm until the OD600 reached 0.8. Subsequently, 0.5 mM IPTG was added, and protein expression was induced overnight at 20 °C.
The IC50 value for each inhibitor was determined using the ADP-Glo™ protocol. Inhibitors were prepared as a series of 1:1 serial dilutions (final concentration of 10 μM) in 40 mM HEPES buffer (pH 7.5) containing 20 mM MgCl2, 0.1 mg/mL BSA, 50 μM DTT and 5% DMSO.
The reaction was terminated by adding 5 μL of ADP-Glo reagent and incubated at room temperature for 40 min. Then, 10 μL of kinase detection reagent was added, and the mixture was incubated for an additional 30 min. Luminescence was measured using a VICTOR Nivo microplate reader (PerkinElmer, Waltham, MA, USA), and the concentration–response curve and half-maximal inhibitory concentration (IC50) values were obtained by fitting the data using GraphPad Prism (v.9.0) software.

T1 sequence (Q99683 659-951): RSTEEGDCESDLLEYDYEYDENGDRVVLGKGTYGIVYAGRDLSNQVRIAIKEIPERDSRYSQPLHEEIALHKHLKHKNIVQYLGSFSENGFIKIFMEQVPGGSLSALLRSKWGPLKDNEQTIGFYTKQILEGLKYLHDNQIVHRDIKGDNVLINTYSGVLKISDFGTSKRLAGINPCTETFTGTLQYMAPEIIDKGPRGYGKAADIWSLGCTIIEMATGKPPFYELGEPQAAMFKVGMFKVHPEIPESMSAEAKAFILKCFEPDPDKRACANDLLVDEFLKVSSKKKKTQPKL

| ΔGexp | IC50 | SMILES |
| --- | --- | --- |
| -8.85 ± 0.02 kcal/mol | 319 ± 10.9 nM | CC(C)n1cnnc1-c1cccc(NC(=O)N2CCc3cc(C(F)(F)F)ccc32)n1 [Compound 5] |
| -11.64 ± 0.06 kcal/mol | 2.92 ± 0.28 nM | CC(C)n1cnnc1-c1cccc(NC(=O)N2CCCc3ccccc32)n1 [Compound 6] |
| -7.21 ± 0.06 kcal/mol | 5110 ± 507 nM | CC(C)n1cnnc1-c1cccc(NC(=O)N2CCc3ccccc3C2)n1 [Compound 7] |

The next lines start with the molecule.

| SMILES | ΔGexp | IC50 |
| --- | --- | --- |
| CC(C)n1cnnc1-c1cccc(NC(=O)N2CCCC2)n1 [Compound 1] | -7.41 ± 0.01 kcal/mol | 3630 ± 72.2 nM |
| COc1ccc2c(c1)N(C(=O)Nc1cccc(-c3nncn3C(C)C)n1)CC2 [Compound 2] | -12.02 ± 0.11 kcal/mol | 1.55 ± 0.27 nM |
| CC(C)n1cnnc1-c1cccc(NC(=O)N2CCc3ccc(OC(F)(F)F)cc32)n1 [Compound 3] | -8.21 ± 0.01 kcal/mol | 954 ± 21.5 nM |
| COc1ccc2c(c1)CCN2C(=O)Nc1cccc(-c2nncn2C(C)C)n1 [Compound 4] | -10.01 ± 0.07 kcal/mol | 45.3 ± 4.82 nM |
